In US20120202801A1, “METHODS FOR TREATING BREAST CANCER” (priority 2009, published 2012):
Where two headings read alike, the source gives them in different places.

What was measured:
[1] = rat, in vivo
[2] = test system: soluble VEGF121 and VEGF165 isoforms; assay: ELISA of soluble VEGF production in multiple human tumor cell lines (EC50); format: cell-based
Protocol: Study Design. […] In these experiments, cultures were established under normoxic conditions (21% oxygen). […] Cells requiring induction of VEGF production were incubated under hypoxic conditions (1% oxygen). At the completion of treatment, the conditioned media were collected and assayed by ELISA (as described in Section 9.1.1.1) for soluble VEGF121 and VEGF165 isoforms; results were calculated as percentage inhibition relative to vehicle treated controls. EC50 values were calculated from the dose concentration response curves.

[3] = In vitro plasma protein binding of 14C-Compound #10; format: in vitro ADME, mice, rats, dogs, monkeys, and humans; conditions: mouse, rat, dog, monkey, human, all species, read-out: plasma protein binding, overall mean
[4] = Dose response assessment in nude mice bearing HT1080 xenografts (tumor and plasma human VEGF, tumor size, trough plasma concentration); format: in vivo; conditions: male, athymic nude, mouse, plasma, oral; 1 mg/kg BID, 16 hours after the first day of dosing (n=3)
Protocol: Experimental Study Design. HT1080 cells (5×10^6 cells/mouse) were implanted subcutaneously in male athymic nude mice.
Tumor size was measured using calipers at periodic intervals during the study (data shown in Section 9.2.2). […] Mice were sacrificed, and excised tumors were homogenized in buffer containing protease inhibitors. Both terminal intratumoral and pathologic plasma human VEGF levels were measured using an ELISA that recognizes human VEGF121 and VEGF165 (as described in Section 9.1.1.1). Intratumoral VEGF levels were normalized to the total tumor protein concentration, while pathologic plasma human VEGF levels were expressed in pg/mL of plasma.
Experimental Design. The experimental design was reported in Section 9.1.2.2.

[5] = Single-dose oral toxicity study in rats; conditions: Sprague Dawley, rat, in vivo
Protocol: The L23 vehicle was used.
Because maximal exposure occurred at 100 mg/kg, this dose is considered the NOAEL for 1 day of dosing.

COc1ccc([C@H]2c3[nH]c4ccc(Cl)cc4c3CCN2C(=O)Oc2ccc(Cl)cc2)cc1 (racemic) [Compound #10]
dose of maximal exposures ([1]; both, Sprague Dawley, 7 days): 120 mg/kg/day | elevation in mean cholesterol levels [1]: 2.5-3 fold | elevation in mean glucose levels [1]: about 1.3 fold | EC50 ([2]; A-375, Melanoma, A375, hypoxic (1% oxygen), 48 hours, read-out: VEGF Inhibition Approximate EC50): ~50 nM | EC50 ([2]; A-431, Epidermoid, A431, 48 hours, read-out: VEGF Inhibition Approximate EC50): ~10 nM | EC50 ([2]; ASPC1, ASPC-1 (Pancreas), 48 hours, read-out: VEGF Inhibition EC50): > 30000 nM | EC50 ([2]; Breast, MDA-MB-468, hypoxic (1% oxygen), 48 hours, read-out: VEGF Inhibition Approximate EC50): ~5 nM | EC50 ([2]; Cervical, HeLa, hypoxic (1% oxygen), 48 hours, read-out: VEGF Inhibition Approximate EC50): ~2 nM | EC50 ([2]; Colorectal, HCT-116, 48 hours, read-out: VEGF Inhibition Approximate EC50): ~10 nM | EC50 ([2]; Gastric, AGS, 48 hours, read-out: VEGF Inhibition Approximate EC50): ~0.1 nM | EC50 ([2]; Gastric, Kato III, hypoxic (1% oxygen), 48 hours, read-out: VEGF Inhibition Approximate EC50): ~10 nM | EC50 ([2]; HCT-116, HCT116 (Colorectal), 48 hours, read-out: VEGF Inhibition EC50): 10 nM | EC50 ([2]; HEK293 (Renal cell), 48 hours, read-out: VEGF Inhibition EC50): 10 nM | EC50 ([2]; HPAF-2 (Pancreas), 48 hours, read-out: VEGF Inhibition EC50): > 30000 nM | EC50 ([2]; HT-1080, Fibrosarcoma, HT1080, 48 hours, read-out: VEGF Inhibition Approximate EC50): ~10 nM | EC50 ([2]; HT-1080, HT1080 (Fibrosarcoma), 48 hours, read-out: VEGF Inhibition EC50): 10 nM | EC50 ([2]; HeLa (Cervical), 48 hours, read-out: VEGF Inhibition EC50): 2 nM | EC50 ([2]; Lung, A549, 48 hours, read-out: VEGF Inhibition Approximate EC50): ~50 nM | EC50 ([2]; Lung, Calu-6, hypoxic (1% oxygen), 48 hours, read-out: VEGF Inhibition Approximate EC50): ~7 nM | EC50 ([2]; Lung, NCI H460, 48 hours, read-out: VEGF Inhibition Approximate EC50): ~10 nM | EC50 ([2]; MDA-MB-231, 48 h, read-out: VEGF Inhibition Approximate EC50): ~5 nM | EC50 ([2]; NCI H460 (Lung), 48 hours, read-out: VEGF Inhibition EC50): 10 nM | EC50 ([2]; Neuroblastoma, SY5Y, hypoxic (1% oxygen), 48 hours, read-out: VEGF Inhibition Approximate EC50): ~5 nM | EC50 ([2]; PL45, PL-45 (Pancreas), 48 hours, read-out: VEGF Inhibition EC50): > 30000 nM | EC50 ([2]; Pancreas, Capan-1, hypoxic (1% oxygen), 48 hours, read-out: VEGF Inhibition Approximate EC50): ~5 nM | EC50 ([2]; Prostate, LNCaP, hypoxic (1% oxygen), 48 hours, read-out: VEGF Inhibition Approximate EC50): ~15 nM | EC50 ([2]; Renal cell, HEK293, 48 hours, read-out: VEGF Inhibition Approximate EC50): ~10 nM | EC50 ([2]; SK-OV-3, Ovarian, SKOV3, hypoxic (1% oxygen), 48 hours, read-out: VEGF Inhibition Approximate EC50): ~10 nM | EC50 ([2]; SNU1, Gastric, SNU-1, 48 hours, read-out: VEGF Inhibition Approximate EC50): ~0.1 nM | EC50 ([2]; U-87MG (Glioblastoma), 48 hours, read-out: VEGF Inhibition EC50): > 30000 nM | fraction unbound [3]: ≤ 0.005 | concentration at 16 h [4]: 280 nM | dose of maximal exposure [5]: 100 mg/kg
